Experiments:
[1] = biological target: T1, MEK (Homo sapiens, UniProt Q02750); assay: in vitro MEK assay; type: biochemical
T1 construct: no tag is given for the 2D mutant
In short: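 GST-MEK (10 μg) or activated GST-MEK-2E (S218E/S222E, 5 μg) phosphorylates kinase-dead GST-MAPK-KA (K71A, 5 μg) with 10 μM [γ-32P]ATP in 50 mM Tris pH 7.5 for 15 min at 30 °C. Read-out: SDS-PAGE, autoradiography and scintillation counting of excised bands.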

T1 sequence (Q02750 whole entry S218D/S222D, form open): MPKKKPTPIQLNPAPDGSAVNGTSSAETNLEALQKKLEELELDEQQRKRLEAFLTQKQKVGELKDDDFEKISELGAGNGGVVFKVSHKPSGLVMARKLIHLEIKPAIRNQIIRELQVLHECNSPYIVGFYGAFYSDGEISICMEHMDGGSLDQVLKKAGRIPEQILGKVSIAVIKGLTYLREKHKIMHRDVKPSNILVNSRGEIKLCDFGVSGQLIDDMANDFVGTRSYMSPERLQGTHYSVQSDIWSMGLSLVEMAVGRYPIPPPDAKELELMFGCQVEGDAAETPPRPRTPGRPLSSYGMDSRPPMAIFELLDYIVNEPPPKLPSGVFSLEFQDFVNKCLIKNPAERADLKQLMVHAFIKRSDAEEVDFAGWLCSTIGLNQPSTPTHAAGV

SMILES	IC50 [1] [µM]	melting point [°C]	in vitro MEK assay: % inhibition @ 1 μM ([1]; @ 1 μM) [%]
CNC(=O)c1cc(C(=O)O)c(Nc2ccc(I)cc2C)c(F)c1F [Example 3, 4,5-Difluoro-6-(-4-iodo-2-methyl-phenylamino)-N-methyl-isophthalamic acid]	2.4	254 to 259	
CNC(=O)c1cc(C(=O)NOCC2CC2)c(Nc2ccc(I)cc2C)c(F)c1F [Example 4, N^1-Cycloprolylmethoxy-4,5-difluoro-6-(4-iodo-2-methyl-phenylamino)-N^3-methyl-isophthalamide]	1.1	198 to 202	
Cc1cc(I)ccc1Nc1c(C(=O)NOCC2CC2)cc(C(=O)N(C)C)c(F)c1F [Example 6, N^1-Cyclopropylmethoxy-4,5-difluoro-6-(4-iodo-2-methyl-phenylamino)-N^3,N^3-dimethyl-isophthalamide]	4.3	78 to 80	

Results, then the compound that gave them:

IC50 [1] [µM]	melting point [°C]	in vitro MEK assay: % inhibition @ 1 μM ([1]; @ 1 μM) [%]	SMILES
6.6	219 to 223		CNC(=O)c1cc2c(c(F)c1F)N(c1ccc(I)cc1C)COC2=O [Example 2, 7,8-Difluoro-1-(4-iodo-2-methyl-phenyl)-4-oxo-1,4-dihydro-2H-benzo[d][1,3]oxazine-6-carboxylic acid methylamide]
		75	Cc1cc(I)ccc1N1COC(=O)c2cc(C(=O)N3CCSCC3)c(F)c(F)c21 [Example 59, 7,8-Difluoro-1-(4-iodo-2-methyl-phenyl)-6-(thiomorpholine-4-carbonyl)-1,2-dihydro-3,1-benzoxzin-4-one]

From patent US7001905B2, “Substituted diarylamines as MEK inhibitors” (Warner-Lambert Company, priority 2000, dated 2006)
